From patent US20090226395A1, “Pharmaceutical compositions of beta-lapachone and beta-lapachone analogs with improved tumor targeting potential” (ArQule, Inc., priority 2004, published 2009)

How the values were obtained:
[1] = Hydrolytic release of β-lapachone or ketal from poly-L-glutamate conjugates, monitored by HPLC; assay type: physicochemical
Text: […] The complete release of 2,2-dimethyl-3,4-dihydro-2H-benzo[h]chromene-5,6-dione from the conjugate is achieved within 2-3 days as monitored by HPLC. In addition to the 2,2-dimethyl-3,4-dihydro-2H-benzo[h]chromene-5,6-dione peak, two additional peaks are detected in the HPLC chromatogram. These peaks are believed to be products of the degradation of 2,2-dimethyl-3,4-dihydro-2H-benzo[h]chromene-5,6-dione and an alternate hydrolysis product of conjugate. The concentration of released 2,2-dimethyl-3,4-dihydro-2′-1-benzo[h]chromene-5,6-dione is calculated by comparing the peak areas with the previously obtained calibration curve of 2,2-dimethyl-3,4-dihydro-2H-benzo[h]chromene-5,6-dione standard. […] Loading on the polymer is then calculated as follows: […]
The conjugate is dissolved in water at a concentration of about 0.3 mg/ml and sonicated to facilitate dissolution. […] The concentration of released 2,2-dimethyl-3,4-dihydro-2H-benzo[h]chromene-5,6-dione is determined by HPLC and the quantity calculated by comparing the peak areas with a previously obtained calibration curve of 2,2-dimethyl-3,4-dihydro-2H-benzo[h]chromene-5,6-dione standard, as described above in Example 10. […]

DLD-1 cells = assay: MTS cell viability assay, DLD-1 cells; assay type: cell-based
Experimental: (§1) Cell viability is determined by measuring the activity of dehydrogenase enzymes in metabolically active cells using a tetrazolium compound, MTS. The assay is performed as described in Promega Technical Bulletin No. 169 (CellTiter 96 Aqueous Non-Radioactive Cell Proliferation Assay). Two cell lines, DLD-1 and NCM-460 are assayed (see, e.g., Table 2). Cells are maintained at 37° C., 5% CO2. Adherent cells are maintained DMEM media (4.5 g/L glucose) supplemented with 15% heat-inactivated FBS, 10 mM L-glutamine, and 10 mM Hepes pH 7.5. Suspension cells are maintained in RPMI 1640 media, supplemented with 10% heat-inactivated FBS and 10 mM Hepes pH 7.5. […] Candidate compounds, including the polymer-modified therapeutics to be tested, are serially diluted in the indicated solvents are, further diluted in cell culture media, and then added to cells. […] MTS stock solution (MTS 2 gm/L, PMS […] in PBS) is added to the cells (final concentration MTS […] and PMS 7.67 mg/L) and incubated for 4 hours. […] The IC50 is defined as the concentration of compound that results in a 50% reduction in the number of viable cells as compared to control wells treated with DMSO only (0.33%) and 0.3% SDS, and is calculated using non-linear regression analysis.

NCM-460 cells = assay: MTS cell viability assay, NCM-460 cells; assay type: cell-based
Experimental: as §1

[2] = system: human peripheral blood mononuclear cells (PBMC); settings: cited from earlier work
[3] = target: human DNA Topoisomerases II (Homo sapiens, UniProt P11388); settings: cited from earlier work
[4] = target: T1, human DNA Topoisomerases I (Homo sapiens, UniProt P11387); settings: cited from earlier work
T1 sequence (P11387 1-765): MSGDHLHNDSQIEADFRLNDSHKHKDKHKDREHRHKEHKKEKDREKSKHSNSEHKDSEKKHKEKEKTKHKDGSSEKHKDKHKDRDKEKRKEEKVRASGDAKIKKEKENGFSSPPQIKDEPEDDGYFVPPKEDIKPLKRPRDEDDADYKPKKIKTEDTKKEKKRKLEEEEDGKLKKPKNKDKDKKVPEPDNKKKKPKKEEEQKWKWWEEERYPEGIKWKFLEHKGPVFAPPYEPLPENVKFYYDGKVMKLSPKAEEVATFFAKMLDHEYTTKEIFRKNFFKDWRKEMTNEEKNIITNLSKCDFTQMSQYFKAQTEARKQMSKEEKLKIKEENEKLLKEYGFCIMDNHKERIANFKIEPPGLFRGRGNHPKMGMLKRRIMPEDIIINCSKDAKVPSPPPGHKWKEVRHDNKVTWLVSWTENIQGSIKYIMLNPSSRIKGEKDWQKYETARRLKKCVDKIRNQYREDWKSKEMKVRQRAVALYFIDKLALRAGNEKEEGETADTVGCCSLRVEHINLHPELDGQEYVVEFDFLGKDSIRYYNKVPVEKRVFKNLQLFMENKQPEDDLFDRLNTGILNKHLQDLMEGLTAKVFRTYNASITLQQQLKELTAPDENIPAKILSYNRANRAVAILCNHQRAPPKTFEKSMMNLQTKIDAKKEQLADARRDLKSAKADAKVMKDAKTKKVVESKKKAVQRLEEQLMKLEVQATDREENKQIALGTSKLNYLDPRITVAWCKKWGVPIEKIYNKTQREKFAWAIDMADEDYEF

human cancer cell lines = settings: single agent; typical range; read-out: antineoplastic activity against human cancer cell lines (IC50); cited from earlier work

Sequence of human DNA Topoisomerases II (P11388 whole entry): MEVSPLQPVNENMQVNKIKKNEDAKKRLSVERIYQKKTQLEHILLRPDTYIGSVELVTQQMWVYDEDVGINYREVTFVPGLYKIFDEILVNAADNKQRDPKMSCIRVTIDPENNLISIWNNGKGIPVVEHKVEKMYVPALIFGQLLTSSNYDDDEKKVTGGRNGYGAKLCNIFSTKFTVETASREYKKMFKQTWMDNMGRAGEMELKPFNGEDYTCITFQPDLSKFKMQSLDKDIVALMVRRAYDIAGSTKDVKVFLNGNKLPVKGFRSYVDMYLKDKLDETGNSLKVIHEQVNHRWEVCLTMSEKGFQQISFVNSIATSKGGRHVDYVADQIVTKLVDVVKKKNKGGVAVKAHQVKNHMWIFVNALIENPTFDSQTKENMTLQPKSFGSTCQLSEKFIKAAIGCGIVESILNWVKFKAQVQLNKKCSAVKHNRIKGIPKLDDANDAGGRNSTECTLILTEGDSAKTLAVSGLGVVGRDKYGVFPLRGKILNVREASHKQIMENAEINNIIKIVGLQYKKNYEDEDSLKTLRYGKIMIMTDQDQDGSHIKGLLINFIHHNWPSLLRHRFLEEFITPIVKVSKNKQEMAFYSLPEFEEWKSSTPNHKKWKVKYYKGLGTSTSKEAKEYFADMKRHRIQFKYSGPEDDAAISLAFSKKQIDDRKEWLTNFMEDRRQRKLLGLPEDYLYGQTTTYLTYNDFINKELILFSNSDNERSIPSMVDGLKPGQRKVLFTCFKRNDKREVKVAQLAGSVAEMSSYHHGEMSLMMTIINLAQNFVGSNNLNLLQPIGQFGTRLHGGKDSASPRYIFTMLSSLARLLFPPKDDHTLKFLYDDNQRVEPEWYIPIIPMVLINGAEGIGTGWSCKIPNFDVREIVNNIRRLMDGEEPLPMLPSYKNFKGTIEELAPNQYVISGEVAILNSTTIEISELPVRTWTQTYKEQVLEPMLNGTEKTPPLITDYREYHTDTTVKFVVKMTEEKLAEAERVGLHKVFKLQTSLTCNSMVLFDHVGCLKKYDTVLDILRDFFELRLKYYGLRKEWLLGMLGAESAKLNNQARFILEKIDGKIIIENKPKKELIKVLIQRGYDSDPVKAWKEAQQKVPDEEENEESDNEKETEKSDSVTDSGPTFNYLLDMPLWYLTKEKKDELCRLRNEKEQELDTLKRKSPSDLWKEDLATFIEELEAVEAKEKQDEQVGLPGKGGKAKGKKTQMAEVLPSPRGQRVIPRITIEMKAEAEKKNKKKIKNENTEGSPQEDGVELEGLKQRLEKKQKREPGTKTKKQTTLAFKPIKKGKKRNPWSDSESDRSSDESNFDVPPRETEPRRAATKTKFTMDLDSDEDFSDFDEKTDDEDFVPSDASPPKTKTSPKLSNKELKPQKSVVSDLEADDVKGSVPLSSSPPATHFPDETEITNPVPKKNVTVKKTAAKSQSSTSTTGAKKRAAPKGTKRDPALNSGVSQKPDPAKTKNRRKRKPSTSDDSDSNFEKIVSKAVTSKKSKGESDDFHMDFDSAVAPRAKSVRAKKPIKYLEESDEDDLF

Molecule | time for hydrolysis of β-lapachone from the conjugate ([1]; pH 11.4) | time to complete release of β-lapachone from the conjugate ([1]; phosphate buffer pH 9.6, about 0.1 mg/ml) | IC50 (DLD-1 cells; incubation time 20 hours) | IC50 (DLD-1 cells; incubation time 72 hours) | IC50 (NCM-460 cells; incubation time 20 hours) | IC50 (NCM-460 cells; incubation time 72 hours) | cytotoxic effects on normal fresh or proliferating human PBMC [2] | in vitro inhibition of human DNA Topoisomerase II [3] | IC50 (DLD-1 cells; Homo sapiens, DLD-1, incubation time 20 hours) | IC50 (DLD-1 cells; Homo sapiens, DLD-1, incubation time 72 hours) | in vitro inhibition of human DNA Topoisomerase I [4] | IC50 (NCM-460 cells; Homo sapiens, NCM460, incubation time 20 hours) | IC50 (NCM-460 cells; Homo sapiens, NCM460, incubation time 72 hours) | IC50 (human cancer cell lines)
5-(acetyloxy)-2,2-dimethyl-3,4-dihydro-2H-benzo[h]chromen-6-yl glycinate γ-poly-L-glutamate | 20 min | 2 to 3 days | 4.42 µM | 1.39 µM | 8.12 µM | 3.66 µM |  |  |  |  |  |  |  | 
CC1(C)CCC2=C(O1)c1ccccc1C(=O)C2=O [β-lapachone, 3,4-dihydro-2,2-dimethyl-2H-naphtho[1,2-b]pyran-5,6-dione, reference compound] |  |  |  |  |  |  | No cytotoxic effects were observed | potent in vitro inhibition | 3.13 µM | 1.71 µM | potent in vitro inhibition | 8.19 µM | 3.25 µM | 1 to 10 µM
(2,2-dimethyl-5-oxo-3,4-dihydro-2H,5H-spiro[benzo[h]chromene-6,2′-[1,3]dioxolan]-4′-yl)methyl γ-poly-L-glutamate sodium |  |  | > 100 µM | > 100 µM | > 100 µM | > 100 µM |  |  |  |  |  |  |  | 
